Assay results as given in US8906908B2, “Hydroxybupropion analogues for treating drug dependence” (priority 2010, dated 2014).
Like-named read-outs stand apart in the source and are kept apart here.

How the values were obtained:
[1] = test system: Male Institute of Cancer Research (ICR) mice; assay: Locomotor activity, antagonism of nicotine effect; assay type: in vivo; conditions: for AD50 Locomotion: pretreatment 15 min before nicotine […] s.c.; for ED50: Mus musculus, pretreatment 15 min before nicotine 1.5 mg/kg s.c., read-out: AD50 Locomotion
Source text: (§1) Animals: Male Institute of Cancer Research (ICR) mice (weighing 20-25 g) obtained from Harlan (Indianapolis, Ind.) were used throughout the study. Animals were housed in an Association for Assessment and Accreditation of Laboratory Animal Care-approved facility, were placed in groups of six, and had free access to food and water. Studies were approved by the Institutional Animal Care and Use Committee of Virginia Commonwealth University.
Locomotor Activity: Mice were placed into individual Omnitech photocell activity cages (28×16.5 cm; Omnitech Electronics, Columbus, Ohio) 5 min after subcutaneous administration of either 0.9% saline or nicotine (1.5 mg/kg). Interruptions of the photocell beams (two banks of eight cells each) were then recorded for the next 10 min. Data were expressed as the number of photocell interruptions.

α4β4-nAChR = molecular target: T1, α4β4-nAChR (Homo sapiens, UniProt P30926+P43681); assay: 86Rb+ efflux nAChR functional assay, SH-EP1-hα4β4 cells; assay type: cell-based; conditions: EC80-EC90 carbamylcholine, parentheses = S.E.M. as multiplication/division factor, read-out: nAChR inhibition IC50 α4β4
T1 construct: expressed in transfected cells; host or cells: SH-EP1 epithelial cells (SH-EP1-hα4β4)
T1 sequence (P43681 29-627 limits assumed): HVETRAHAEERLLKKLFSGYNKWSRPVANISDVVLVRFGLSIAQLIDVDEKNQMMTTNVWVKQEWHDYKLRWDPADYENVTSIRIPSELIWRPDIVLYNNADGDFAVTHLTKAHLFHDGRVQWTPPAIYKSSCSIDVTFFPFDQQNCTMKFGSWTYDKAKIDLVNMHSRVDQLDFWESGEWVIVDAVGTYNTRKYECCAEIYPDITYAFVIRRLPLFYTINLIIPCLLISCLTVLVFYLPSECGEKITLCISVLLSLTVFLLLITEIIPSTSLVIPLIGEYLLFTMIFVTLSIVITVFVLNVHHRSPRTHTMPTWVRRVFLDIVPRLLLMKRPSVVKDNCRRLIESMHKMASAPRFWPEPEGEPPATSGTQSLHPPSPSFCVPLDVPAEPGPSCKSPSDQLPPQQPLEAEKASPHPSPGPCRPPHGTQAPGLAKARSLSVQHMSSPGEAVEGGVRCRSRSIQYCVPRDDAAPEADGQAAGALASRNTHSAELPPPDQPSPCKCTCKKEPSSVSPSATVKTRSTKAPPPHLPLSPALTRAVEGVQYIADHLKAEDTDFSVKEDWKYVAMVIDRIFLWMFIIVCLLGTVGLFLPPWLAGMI
T1 sequence (P30926 22-498): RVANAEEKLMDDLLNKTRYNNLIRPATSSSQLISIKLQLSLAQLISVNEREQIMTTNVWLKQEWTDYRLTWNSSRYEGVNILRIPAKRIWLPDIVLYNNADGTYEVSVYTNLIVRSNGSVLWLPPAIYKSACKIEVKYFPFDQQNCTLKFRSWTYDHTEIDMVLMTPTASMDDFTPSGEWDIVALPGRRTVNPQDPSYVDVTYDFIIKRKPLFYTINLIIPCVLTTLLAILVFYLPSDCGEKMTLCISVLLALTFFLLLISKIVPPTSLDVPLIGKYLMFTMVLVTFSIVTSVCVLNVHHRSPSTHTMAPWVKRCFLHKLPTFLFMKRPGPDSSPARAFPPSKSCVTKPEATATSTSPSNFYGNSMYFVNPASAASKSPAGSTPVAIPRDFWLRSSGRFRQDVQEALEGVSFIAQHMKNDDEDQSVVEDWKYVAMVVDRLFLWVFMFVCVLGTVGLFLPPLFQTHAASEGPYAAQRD
Source text: (§2) Cell Lines and Culture: Human embryonic kidney (HEK-293) cells stably expressing human DAT, NET or SERT were maintained as previously described in Eshleman, A. J.; Carmolli, M.; Cumbay, M.; Martens, C. R.; Neve, K. A.; Janowsky, A., J. Pharmacol. Exp. Ther. 1999, 289, (2), 877-885. Use was made of several human cell lines that naturally or heterologously express specific, functional, human nAChR subtypes. Cells of the TE671/RD line naturally expresses muscle-type nAChR (a1β1γδ- or α1*-nAChR), and SH-SY5Y neuroblastoma cells naturally expresses autonomic α3β4*-nAChRs (containing α3, β4, probably α5, and sometimes β2 subunits). Different clones of SH-EP1 epithelial cell lines have been engineered to heterologously express either α4β2-nAChR, which are thought to be the most abundant, high affinity nicotine-binding nAChR in mammalian brain, or α4β4-nAChR, another possible brain nAChR subtype (SH-EP1-hα4β2 or α4β4 cells, respectively). These cells were maintained as low passage number (1-26 from our frozen stocks) cultures to ensure stable expression of native or heterologously-expressed nAChR as previously described (see Lukas, R. J.; Fryer, J. D.; Eaton, J. B.; L., G. C., Some methods for studies of nicotinic acetylcholine receptor pharmacology, in Nicotinic receptors and the Nervous System, Levine, E. D., Ed. CRC Press: Boca Raton, 2002; pp 3-27, incorporated herein by reference in its entirety). Cells were passaged once weekly by splitting just-confluent cultures 1/300 (TE671/RD), 1/5 (SH-SY5Y), or 1/20 (transfected SH-EP1) in serum-supplemented medium to maintain log-phase growth.
After cells had adhered (generally overnight, but no sooner than 4 h later), the medium was removed and replaced with 250 μL per well of complete medium supplemented with ˜350,000 cpm of ^86Rb^+ (PerkinElmer Life and Analytical Sciences, Boston, Mass.) and counted at 40% efficiency using Cerenkov counting (TriCarb 1900 liquid scintillation analyzer[…]; PerkinElmer Life Sciences).
After at least 4 h and typically overnight, ^86Rb^+ efflux was measured using the “flip-plate” technique. See Lukas, R. J.; Fryer, J. D.; Eaton, J. B.; L., G. C., Some methods for studies of nicotinic acetylcholine receptor pharmacology, in Nicotinic receptors and the Nervous System, Levine, E. D., Ed. CRC Press: Boca Raton, 2002; pp 3-27, incorporated herein by reference in its entirety). Briefly, after aspiration of the bulk of ^86Rb^+ loading medium from each well of the “cell plate,” each well containing cells was rinsed 3× with 2 mL of fresh ^86Rb^+ efflux buffer (130 mM NaCl, 5.4 mM KCl, 2 mM CaCl2, 5 mM glucose, 50 mM HEPES, pH 7.4) to remove extracellular ^86Rb^+. Following removal of residual rinse buffer by aspiration, the flip-plate technique was used again to simultaneously introduce 1.5 mL of fresh efflux buffer containing drugs of choice at indicated final concentrations from a 24-well “efflux/drug plate” into the wells of the cell plate. After a 5 min incubation, the solution was “flipped” back into the efflux/drug plate, and any remaining buffer in the cell plate was removed by aspiration. Cells remaining in the cell plate were lysed and suspended by addition of 1.5 mL of 0.1 M NaOH, 0.1% sodium dodecyl sulfate to each well.
Similarly, the sum of ^86Rb^+ in cell plates and efflux/drug plates also determined the efficiency of ^86Rb^+ loading (the percentage of applied ^86Rb^+ actually loaded into cells).
Specific efflux was then taken as the difference in control samples between total and non-specific ^86Rb^+ efflux. Any intrinsic agonist activity of test drugs was ascertained using samples containing test drug only at different concentrations and was normalized, after subtraction of non-specific efflux, to specific efflux in test drug-free, control samples.

[2] = test system: Male Institute of Cancer Research (ICR) mice; assay: Tail-flick test, blockade of nicotine-induced antinociception; assay type: in vivo; conditions: for ED50: Mus musculus, 5 min, read-out: AD50 Tail-flick; for ED50 / AD50 Tail-flick: mice, pretreatment 15 min before nicotine 2.5 mg/kg s.c., tested 5 min after nicotine; for activity in the tail-flick assay relative to (2S,3S)-4a: higher activity than (2S,3S)-4a
Source text: as §1
Tail-Flick Test: Antinociception for pain mediated at the spinal level was assessed by the tail-flick method of D'Amour, F. E.; Smith, D. L., J. Pharmacol. Exp. Ther. 1941, 72, 74-79, incorporated herein by reference in its entirety. In brief, mice were lightly restrained while a radiant heat source was shone onto the upper portion of the tail. To minimize tissue damage, a maximum latency of 10 s was imposed. Latency to remove the tail from the heat source was recorded for each animal. […] Antinociceptive response was calculated as the percentage of maximum possible effect (% MPE), where % MPE=[(test control)/(10 control)]×100.

NE transporters [h(NET)] = molecular target: T2, NE transporters [h(NET)] (Homo sapiens, UniProt P23975); assay: Inhibition of [3H]norepinephrine uptake into HEK293 cells stably expressing hNET; assay type: cell-based; conditions: for selectivity for inhibition of NE over DA uptake: ratio of uptake IC50 values
T2 construct: expressed in transfected cells; host or cells: HEK-293
T2 sequence (P23975 whole entry): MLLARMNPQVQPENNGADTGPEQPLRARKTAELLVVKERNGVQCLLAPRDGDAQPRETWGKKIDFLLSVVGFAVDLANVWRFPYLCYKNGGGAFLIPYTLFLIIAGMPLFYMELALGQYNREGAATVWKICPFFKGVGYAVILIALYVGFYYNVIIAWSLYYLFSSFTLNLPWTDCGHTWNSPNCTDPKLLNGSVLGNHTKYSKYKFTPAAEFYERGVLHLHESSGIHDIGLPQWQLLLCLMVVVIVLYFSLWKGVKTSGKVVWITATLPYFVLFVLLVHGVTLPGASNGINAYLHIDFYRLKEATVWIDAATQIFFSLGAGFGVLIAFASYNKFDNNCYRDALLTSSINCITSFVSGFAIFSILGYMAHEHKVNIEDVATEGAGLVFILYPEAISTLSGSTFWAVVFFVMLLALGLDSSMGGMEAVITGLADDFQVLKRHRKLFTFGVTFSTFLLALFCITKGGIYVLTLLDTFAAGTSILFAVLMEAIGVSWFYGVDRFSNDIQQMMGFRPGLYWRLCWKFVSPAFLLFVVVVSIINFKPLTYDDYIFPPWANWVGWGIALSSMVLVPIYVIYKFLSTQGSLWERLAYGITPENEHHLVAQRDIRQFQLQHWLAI
Source text: as §2
See, for example, Damaj, M. I.; Carroll, F. I.; Eaton, J. B.; Navarro, H. A.; Blough, B. E.; Mirza, S.; Lukas, R. J.; Martin, B. R., Mol. Pharmacol. 2004, 66, (3), 675-682 and Eshleman, A. J.; Carmolli, M.; Cumbay, M.; Martens, C. R.; Neve, K. A.; Janowsky, A., J. Pharmacol. Exp. Ther. 1999, 289, (2), 877-885, both incorporated by reference herein in their entireties.

[3] = HEK293-hNET, mean ± standard error of three independent experiments, read-out: monoamine uptake inhibition IC50 [3H]NE

Structure (SMILES)	AD50 Locomotion [1]	IC50 (α4β4-nAChR) [µM]	ED50 [2] [mg/kg]	IC50 (NE transporters [h(NET)]) [µM]	selectivity for inhibition of NE uptake over α3β4*-nAChR function (NE transporters [h(NET)]) [fold]	ED50 [1] [mg/kg]	AD50 Tail-flick [2]	IC50 (NE transporters [h(NET)]; [3]) [µM]	selectivity for inhibition of NE over DA uptake (NE transporters [h(NET)]) [fold]	selectivity for inhibition of NE uptake over α4β2-nAChR function (NE transporters [h(NET)]) [fold]	activity in the tail-flick assay relative to (2S,3S)-4a [2] [fold]
CC1NC(C)(C)COC1(O)c1ccc(Cl)c(Cl)c1 (racemic) [Compound 4n, 2-(3,4-Dichlorophenyl)-3,5,5-trimethylmorpholin-2-ol]	IA (IA: AD50 > 15 mg/kg)	14	8.8	0.114	~23	–	–	–	–	–	–
CC1NC(C)(C)COC1(O)c1cc(Cl)cc(Cl)c1 (racemic) [Compound 4p, 2-(3,5-Dichlorophenyl)-3,5,5-trimethylmorpholin-2-ol]	–	18	–	–	1.6	1.9	IA (IA: AD50 > 15 mg/kg)	2.44 ± 0.73	–	–	–
C[C@@H]1NC(C)(C)CO[C@@]1(O)c1ccccc1 [Compound 4b, (2S,3S)-2-Phenyl-3,5,5-trimethylmorpholin-2-ol]	IA (IA: AD50 > 15 mg/kg)	92	–	–	–	–	IA (IA: AD50 > 15 mg/kg)	0.55 ± 0.09	–	–	–
C[C@@H]1NC(C)(C)CO[C@@]1(O)c1cccc(F)c1 [Compound 4c, (2S,3S)-2-(3-Fluorophenyl)-3,5,5-trimethylmorpholin-2-ol]	IA (IA: AD50 > 15 mg/kg)	> 100	0.012 to 0.013	–	–	–	–	0.74 ± 0.15	–	–	–
C[C@@H]1NC(C)(C)CO[C@@]1(O)c1cccc(Br)c1 [Compound 4d, (2S,3S)-2-(3-Bromophenyl)-3,5,5-trimethylmorpholin-2-ol]	2.6 mg/kg	30	0.16	–	–	2.6	–	0.92 ± 0.3	~3.6	–	–
Cc1cccc([C@]2(O)OCC(C)(C)N[C@H]2C)c1 [Compound 4e, (2S,3S)-2-(m-Tolyl)-3,5,5-trimethylmorpholin-2-ol]	IA (IA: AD50 > 15 mg/kg)	64	0.054	–	–	–	–	1.13 ± 0.02	–	–	–
COc1cccc([C@]2(O)OCC(C)(C)N[C@H]2C)c1 [Compound 4f, (2S,3S)-2-(3-Methoxyphenyl)-3,5,5-trimethylmorpholin-2-ol]	IA (IA: AD50 > 15 mg/kg)	> 100	5.85	–	–	–	–	3 ± 0.9	5	–	–
C[C@@H]1NC(C)(C)CO[C@@]1(O)c1cccc([N+](=O)[O-])c1 [Compound 4g, (2S,3S)-2-(3-Nitrophenyl)-3,5,5-trimethylmorpholin-2-ol]	IA (IA: AD50 > 15 mg/kg)	80	4.9	–	–	–	–	1.21 ± 0.34	10	–	–
C[C@@H]1NC(C)(C)CO[C@@]1(O)c1ccc(F)cc1 [Compound 4h, (2S,3S)-2-(4-Fluorophenyl)-3,5,5-trimethylmorpholin-2-ol]	IA (IA: AD50 > 15 mg/kg)	> 100	0.012 to 0.013	–	–	–	–	3.8 ± 0.6	–	–	–
C[C@@H]1NC(C)(C)CO[C@@]1(O)c1ccc(Cl)cc1 [Compound 4i, (2S,3S)-2-(4-Chlorophenyl)-3,5,5-trimethylmorpholin-2-ol]	IA (IA: AD50 > 15 mg/kg)	33	0.019	–	–	–	–	0.83 ± 0.09	–	–	–
Cc1ccc([C@]2(O)OCC(C)(C)N[C@H]2C)cc1 [Compound 4j, (2S,3S)-3,5,5-Trimethyl-2-(4-methylphenyl)morpholin-2-ol]	IA (IA: AD50 > 15 mg/kg)	62	0.004	–	–	–	–	1.68 ± 0.33	–	–	–
COc1ccc([C@]2(O)OCC(C)(C)N[C@H]2C)cc1 [Compound 4k, (2S,3S)-2-(4-Methoxyphenyl)-3,5,5-trimethylmorpholin-2-ol]	IA (IA: AD50 > 15 mg/kg)	72	0.019	–	–	–	–	> 10	–	–	–
C[C@@H]1NC(C)(C)CO[C@@]1(O)c1ccc(-c2ccccc2)cc1 [Compound 4l, (2S,3S)-2-Biphenyl-4-yl-3,5,5-trimethylmorpholin-2-ol]	IA (IA: AD50 > 15 mg/kg)	8.1	0.021	–	–	–	–	10.3	–	–	–
C[C@@H]1NC(C)(C)CO[C@@]1(O)c1ccc(F)c(F)c1 [Compound 4m, (2S,3S)-2-(3,4-Difluorophenyl)-3,5,5-trimethylmorpholin-2-ol]	IA (IA: AD50 > 15 mg/kg)	> 100	0.006	–	–	–	–	0.74 ± 0.11	–	–	–
C[C@@H]1NC(C)(C)CO[C@@]1(O)c1cc(F)cc(F)c1 [Compound 4o, (2S,3S)-2-(3,5-Difluorophenyl)-3,5,5-trimethylmorpholin-2-ol]	IA (IA: AD50 > 15 mg/kg)	62	0.0056	–	–	–	~0.006 mg/kg	0.151 ± 0.043	–	42	–
C[C@@H]1NC(C)(C)CO[C@@]1(O)c1cccc2ccccc12 [Compound 4q, (2S,3S)-2-(Naphthalen-1-yl)-3,5,5-trimethylmorpholin-2-ol]	IA (IA: AD50 > 15 mg/kg)	13	0.034	–	–	–	–	0.411 ± 0.053	24	–	~5
C[C@@H]1NC(C)(C)CO[C@@]1(O)c1ccc2ccccc2c1 [Compound 4r, (2S,3S)-2-(Naphthalen-2-yl)-3,5,5-trimethylmorpholin-2-ol]	IA (IA: AD50 > 15 mg/kg)	11	0.04	–	1.3	–	–	1.57 ± 0.43	–	~4	~5
